# From ChEMBL document CHEMBL3813594, “Design and structure-activity relationships of novel inhibitors of human rhinovirus 3C protease” (Bioorg Med Chem Lett, 2016)
# What was measured:
# [1] = tested on: rhinovirus A2; assay: Antiviral activity against human rhinovirus 2 assessed as reduction in viral infection in human HeLa H1 cells pretreated for 1 to 2 hrs with virus followed by cell addition measured after 48 hrs by Celltiter-Glo reagent based assay; format: functional, organism-based
# [2] = tested on: rhinovirus A16; assay: Antiviral activity against human rhinovirus 16 assessed as reduction in viral infection in human HeLa H1 cells pretreated for 1 to 2 hrs with virus followed by cell addition measured after 48 hrs by Celltiter-Glo reagent based assay; format: functional, organism-based
# [3] = Antiviral activity against human rhinovirus 17 assessed as reduction in viral infection in human HeLa H1 cells pretreated for 1 to 2 hrs with virus followed by cell addition measured after 48 hrs by Celltiter-Glo reagent based assay; format: functional, Human rhinovirus B17
# [4] = Antiviral activity against human rhinovirus 8 assessed as reduction in viral infection in human HeLa H1 cells pretreated for 1 to 2 hrs with virus followed by cell addition measured after 48 hrs by Celltiter-Glo reagent based assay; format: functional, Human rhinovirus A8; details: Rhinovirus A
# [5] = tested on: rhinovirus B14; assay: Antiviral activity against human rhinovirus 14 assessed as reduction in viral infection in human HeLa H1 cells pretreated for 1 to 2 hrs with virus followed by cell addition measured after 48 hrs by Celltiter-Glo reagent based assay; format: functional, organism-based; details: Rhinovirus B
# [6] = tested on: rhinovirus A25; assay: Antiviral activity against human rhinovirus 25 assessed as reduction in viral infection in human HeLa H1 cells pretreated for 1 to 2 hrs with virus followed by cell addition measured after 48 hrs by Celltiter-Glo reagent based assay; format: functional, organism-based; details: Rhinovirus A
# [7] = tested on: rhinovirus A41; assay: Antiviral activity against human rhinovirus 41 assessed as reduction in viral infection in human HeLa H1 cells pretreated for 1 to 2 hrs with virus followed by cell addition measured after 48 hrs by Celltiter-Glo reagent based assay; format: functional, organism-based; details: Rhinovirus A
# [8] = tested on: rhinovirus A85; assay: Antiviral activity against human rhinovirus 85 assessed as reduction in viral infection in human HeLa H1 cells pretreated for 1 to 2 hrs with virus followed by cell addition measured after 48 hrs by Celltiter-Glo reagent based assay; format: functional, organism-based; details: Rhinovirus A
# [9] = Antiviral activity against human rhinovirus 100 assessed as reduction in viral infection in human HeLa H1 cells pretreated for 1 to 2 hrs with virus followed by cell addition measured after 48 hrs by Celltiter-Glo reagent based assay; format: functional, Human rhinovirus A100; details: Rhinovirus A
# [10] = Antiviral activity against human rhinovirus 7 assessed as reduction in viral infection in human HeLa H1 cells pretreated for 1 to 2 hrs with virus followed by cell addition measured after 48 hrs by Celltiter-Glo reagent based assay; format: functional, Human rhinovirus A7; details: Rhinovirus A
# [11] = tested on: rhinovirus A2; assay: Antiviral activity against human rhinovirus 2 assessed as reduction in viral infection in human HeLa H1 cells after 2 to 5 days by XTT reduction assay; format: functional, organism-based; details: Rhinovirus A
# [12] = tested on: rhinovirus A16; assay: Antiviral activity against human rhinovirus 16 assessed as reduction in viral infection in human HeLa H1 cells after 2 to 5 days by XTT reduction assay; format: functional, organism-based; details: Rhinovirus A
# [13] = Antiviral activity against human rhinovirus 17 assessed as reduction in viral infection in human HeLa H1 cells after 2 to 5 days by XTT reduction assay; format: functional, cell-based, Human rhinovirus B17; details: Rhinovirus B
SMILES,"EC50 ([1]; Rhinovirus A, HeLa H1)","EC50 ([2]; Rhinovirus A, HeLa H1)","EC50 ([3]; Rhinovirus B, HeLa H1)",EC50 [4],EC50 [5],EC50 [6],EC50 [7],EC50 [8],EC50 [9],EC50 [10],EC50 ([1]; hela h1),EC50 ([2]; hela h1),EC50 ([3]; hela h1),EC50 [11],EC50 [12],EC50 [13]
CCOC(=O)/C=C/[C@H](C[C@@H]1CCNC1=O)NC(=O)[C@@H]1C[C@@H](Cc2ccccc2)CN1C(=O)[C@@H](NC(=O)c1cc(C)on1)C(C)C,300 nM,47 nM,190 nM,–,–,–,–,–,–,–,–,–,–,–,–,–
CCOC(=O)/C=C/[C@H](C[C@@H]1CCNC1=O)NC(=O)[C@@H]1CC[C@@H](c2ccccc2)N1C(=O)[C@@H](NC(=O)c1cc(C)on1)C(C)C,1900 nM,260 nM,150 nM,–,–,–,–,–,–,–,–,–,–,–,–,–
CCOC(=O)/C=C/[C@H](C[C@@H]1CCNC1=O)NC(=O)[C@@H]1C[C@@H](C2CCCCC2)CN1C(=O)[C@@H](NC(=O)c1cc(C)on1)C(C)C,46 nM,15 nM,7 nM,22 nM,11 nM,9 nM,90 nM,94 nM,80 nM,47 nM,–,–,–,–,–,–
CCOC(=O)/C=C/[C@H](C[C@@H]1CCNC1=O)NC(=O)[C@@H]1C[C@@H](c2ccccc2)CN1C(=O)[C@@H](NC(=O)c1cc(C)on1)C(C)C,140 nM,24 nM,11 nM,37 nM,13 nM,19 nM,130 nM,250 nM,110 nM,81 nM,–,–,–,–,–,–
CCOC(=O)/C=C/[C@H](C[C@@H]1CCNC1=O)NC(=O)[C@@H]1CCCN1C(=O)[C@@H](NC(=O)c1cc(C)on1)C(C)C,1390 nM,400 nM,230 nM,590 nM,470 nM,1890 nM,1450 nM,4200 nM,1800 nM,1300 nM,–,–,–,–,–,–
CCOC(=O)/C=C/[C@H](C[C@@H]1CCNC1=O)NC(=O)[C@@H]1C[C@@H](CC#N)CN1C(=O)[C@@H](NC(=O)c1cc(C)on1)C(C)C,430 nM,199 nM,500 nM,–,–,–,–,–,–,–,–,–,–,–,–,–
CCOC(=O)/C=C/[C@H](C[C@@H]1CCNC1=O)NC(=O)[C@@H]1C[C@@H](Oc2ccccc2)CN1C(=O)[C@@H](NC(=O)c1cc(C)on1)C(C)C,270 nM,59 nM,260 nM,–,–,–,–,–,–,–,–,–,–,–,–,–
CCOC(=O)/C=C/[C@H](C[C@@H]1CCNC1=O)NC(=O)[C@@H]1[C@@H](c2ccccc2)CCN1C(=O)[C@@H](NC(=O)c1cc(C)on1)C(C)C,8400 nM,3000 nM,700 nM,3500 nM,2500 nM,4500 nM,4500 nM,9300 nM,6500 nM,8300 nM,–,–,–,–,–,–
CCOC(=O)/C=C/[C@H](C[C@@H]1CCNC1=O)NC(=O)[C@@H]1[C@@H](c2ccccc2)CN1C(=O)[C@@H](NC(=O)c1cc(C)on1)C(C)C (stereo in doubt; 10),–,–,–,170 nM,91 nM,100 nM,530 nM,1140 nM,470 nM,420 nM,300 nM,300 nM,90 nM,–,–,–
CCOC(=O)/C=C/[C@H](C[C@@H]1CCNC1=O)NC(=O)[C@@H]1[C@@H](c2ccccc2)CN1C(=O)[C@@H](NC(=O)c1cc(C)on1)C(C)C (stereo in doubt; 11),–,–,–,–,–,–,–,–,–,–,> 50000 nM,> 50000 nM,> 50000 nM,–,–,–
CCOC(=O)/C=C/[C@H](C[C@@H]1CCNC1=O)NC(=O)[C@@H](CC(=O)[C@@H](NC(=O)c1cc(C)on1)C(C)C)Cc1ccc(F)cc1 [RUPINTRIVIR],–,–,–,–,–,–,–,–,–,–,–,–,–,12 nM,14 nM,14 nM
